Data as given in US12539298B2, “Lobinaline N-oxides as positive allosteric modulators of the dopamine transporter with potential value in the treatment of substance abuse disorders” (University of Kentucky Research Foundation, priority 2019, dated 2026).

Tests used:
[1] = octanol/water partition (K octanol/water); format: physicochemical
Text: (§1) Lobinaline and the “mono”-N-oxide were separated from plant and culture material by acid/base extraction, but the bi-N-oxide was derived from lobinaline using 3-chloroperbenzoic acid. All these compounds were separated by column chromatography with identity and purity confirmed by LC/MS.

aqueous solubility = format: physicochemical
Text: Lobinaline (FIG. 1), was isolated from plant material and identified as the first-known binitrogenous plant alkaloid more than 80 years ago [27]. The applicants began to test its pharmacological activity after identifying Lobelia cardinalis as a novel source of nicAChR activity by high throughput screening in 2005 [26]. This plant species has no history of abuse, or traditional medicinal use of relevance to SUDs. […] These actions support lobinaline as a lead compound for the treatment of SUDs, particularly alcohol and nicotine use disorders. […] Lobinaline also appears to have appropriate pharmacokinetics and low toxicity. […] Conversely, this makes it a good test of the ability of target-directed evolution to generate novel inhibitors of the DAT in mutant plant cells.
as §1

nicAChRs [2] = test: displacement of [3H]epibatidine from rat brain homogenates; format: binding
alpha4/beta2 nicAChR = molecular target: T1, alpha4/beta2 nicAChR (Rattus norvegicus, UniProt P09483+P12390); test: displacement of beta2-selective radioligand [3H]cytisine; format: binding
T1 construct: from tissue
T1 sequence (P09483 31-630): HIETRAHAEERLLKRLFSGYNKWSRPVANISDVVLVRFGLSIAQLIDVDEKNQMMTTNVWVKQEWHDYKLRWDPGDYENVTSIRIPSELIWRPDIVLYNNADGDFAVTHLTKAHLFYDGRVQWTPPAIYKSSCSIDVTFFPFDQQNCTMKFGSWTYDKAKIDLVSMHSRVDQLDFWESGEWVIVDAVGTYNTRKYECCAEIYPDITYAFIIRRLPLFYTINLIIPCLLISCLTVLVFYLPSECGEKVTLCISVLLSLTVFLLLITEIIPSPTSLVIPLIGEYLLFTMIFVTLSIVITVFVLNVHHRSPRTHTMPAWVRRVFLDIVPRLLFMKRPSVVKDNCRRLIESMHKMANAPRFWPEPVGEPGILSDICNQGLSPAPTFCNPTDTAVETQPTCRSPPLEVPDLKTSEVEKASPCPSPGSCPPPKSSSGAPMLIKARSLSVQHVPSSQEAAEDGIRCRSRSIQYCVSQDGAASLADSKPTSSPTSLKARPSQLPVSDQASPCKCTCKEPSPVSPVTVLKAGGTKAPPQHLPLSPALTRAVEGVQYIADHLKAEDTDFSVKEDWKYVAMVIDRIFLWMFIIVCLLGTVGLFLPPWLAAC
T1 sequence (P12390 25-500): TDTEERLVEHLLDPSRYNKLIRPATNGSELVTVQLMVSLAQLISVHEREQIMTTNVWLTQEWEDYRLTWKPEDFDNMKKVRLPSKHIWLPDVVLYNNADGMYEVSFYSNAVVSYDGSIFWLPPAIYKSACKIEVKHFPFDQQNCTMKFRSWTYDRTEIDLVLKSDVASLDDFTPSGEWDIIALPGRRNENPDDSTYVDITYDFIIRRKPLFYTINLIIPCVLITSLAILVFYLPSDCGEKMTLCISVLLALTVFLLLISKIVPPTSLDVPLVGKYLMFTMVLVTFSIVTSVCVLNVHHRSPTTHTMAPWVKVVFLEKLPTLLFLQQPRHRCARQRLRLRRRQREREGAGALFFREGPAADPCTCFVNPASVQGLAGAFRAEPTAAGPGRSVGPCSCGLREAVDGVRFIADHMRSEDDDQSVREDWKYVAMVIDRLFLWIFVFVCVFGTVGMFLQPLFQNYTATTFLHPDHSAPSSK

alpha7-nicAChR = molecular target: T2, alpha7-nicAChR (Rattus norvegicus, UniProt Q05941); test: displacement of [3H]-methyllycaconitine; format: binding; conditions: alpha7-nicAChR selective radioligand
T2 construct: from tissue
T2 sequence (Q05941 23-502): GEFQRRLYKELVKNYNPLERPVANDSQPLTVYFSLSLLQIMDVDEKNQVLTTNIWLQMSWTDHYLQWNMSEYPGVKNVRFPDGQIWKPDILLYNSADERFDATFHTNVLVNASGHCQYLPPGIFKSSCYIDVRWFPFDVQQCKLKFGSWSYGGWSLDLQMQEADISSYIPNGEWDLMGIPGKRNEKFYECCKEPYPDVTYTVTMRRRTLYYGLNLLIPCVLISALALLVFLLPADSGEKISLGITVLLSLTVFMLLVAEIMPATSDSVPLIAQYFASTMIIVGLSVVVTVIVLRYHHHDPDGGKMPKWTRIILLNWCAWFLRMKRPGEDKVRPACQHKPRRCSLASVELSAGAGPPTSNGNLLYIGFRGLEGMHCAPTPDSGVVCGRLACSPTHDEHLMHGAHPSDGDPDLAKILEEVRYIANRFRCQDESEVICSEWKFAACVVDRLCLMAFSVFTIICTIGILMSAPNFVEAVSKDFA

nicAChR = test: 45Ca2+ entry into SHSY5Y cells; format: cell-based; conditions: conclusion from 45Ca2+ entry
Text: Effects of lobinaline and nicotine on ^45Ca^2+ entry into SHSY5Y cells: nicAChR function can be evaluated semi-quantitatively in this cell line by measuring ^45Ca^2+ entry in response to nicotine. […] The lobinaline N-oxides have not yet been tested in this system.

nicAChRs [3] = test: [3H]DA release from superfused rat striatal slices; format: cell-based; conditions: 100 uM superfused before nicotine
Procedure: Effects of lobinaline and nicotine on [3H]DA release from superfused rat striatal slices (ref 5): rat brain striatal slices were incubated with [3H]DA for 30 min at […] before transfer to superfusion chambers. […] To evaluate the role of nicAChRs, striatal slices preloaded with [3H]-DA were pretreated with the nicAChR antagonist mecamylamine (10 μM) prior to superfusion of lobinaline (100 μM). […] With the data above from SHSY5Y cells, this supports a partial agonist action of lobinaline at nicAChRs. The N-oxides have not yet been tested in this system. Lobinaline has weak agonist effects on nicAChRs, but also has as yet unquantified antagonist effects (i.e. it acts as a partial agonist at nicAChRs).

[4] = Drinking in the dark model of binge drinking; format: in vivo, C57Bl/6J mice; conditions: 25 mg/Kg SC
Procedure: “Drinking in the dark” is a model for binge drinking in which C57Bl/6J mice are given limited access to alcohol during their dark cycle. With repeated daily access, mice will voluntarily drink to blood alcohol levels above 150 mg/dl. Lobeline reduces alcohol consumption in this model and it has predictive validity in that both naltrexone and acamprosate are active.
Methods: 8 male and 8 female mice were used for each of these studies and scoring was by an observer blind to treatment. Statistical analysis was by ANOVA followed by Bonnferoni posthoc with significance at p<0.05.

DAT [5] = molecular target: T3, DAT (Rattus norvegicus, UniProt P23977); test: [3H]DA uptake into rat striatal synaptosomes; format: biochemical; parameters: from tissue; host or cells: rat striatum (synaptosomes; homogenate); conditions: compound added 15 min before [3H]DA, 30 min at 37° C, read-out: IC50, inhibition of [3H]-DA uptake
T3 sequence (P23977 whole entry): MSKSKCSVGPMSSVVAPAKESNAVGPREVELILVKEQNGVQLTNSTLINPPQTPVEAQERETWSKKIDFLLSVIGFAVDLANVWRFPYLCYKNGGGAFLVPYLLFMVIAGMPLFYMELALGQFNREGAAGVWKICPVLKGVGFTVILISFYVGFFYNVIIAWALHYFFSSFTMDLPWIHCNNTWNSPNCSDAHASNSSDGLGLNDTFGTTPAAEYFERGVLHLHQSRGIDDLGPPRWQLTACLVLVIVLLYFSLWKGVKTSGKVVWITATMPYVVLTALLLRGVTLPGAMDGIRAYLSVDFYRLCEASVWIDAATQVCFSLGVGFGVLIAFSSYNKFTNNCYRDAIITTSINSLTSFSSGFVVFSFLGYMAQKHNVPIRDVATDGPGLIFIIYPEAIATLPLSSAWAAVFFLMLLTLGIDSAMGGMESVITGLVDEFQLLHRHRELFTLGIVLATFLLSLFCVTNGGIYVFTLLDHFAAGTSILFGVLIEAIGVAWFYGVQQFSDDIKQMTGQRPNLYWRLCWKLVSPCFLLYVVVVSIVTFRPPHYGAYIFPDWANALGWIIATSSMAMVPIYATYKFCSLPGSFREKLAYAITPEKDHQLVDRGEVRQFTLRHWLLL
Procedure: Lobinaline or the N-oxides were added 15 min before addition of [3H]DA. Synaptosomal uptake of [3H]DA was measured after 30 min incubation at 37° C.

DAT [6] = molecular target: T3, DAT; test: [3H]GBR 12935 binding to rat striatal homogenate; parameters: from tissue; host or cells: rat striatum (synaptosomes; homogenate)
Procedure: [3H]DA release from rat striatal synaptosomes: Synaptosomes preloaded with [3H]DA were exposed to lobinaline (10-500 uM), 30 min @ 37° C.). [3H]DA release was calculated by subtraction of activity following drug treatment from activity in the absence of drug.

DAT [7] = molecular target: T3, DAT; test: DA clearance in striatum of anesthetized rats by in vivo electrochemistry (high-speed chronoamperometry), Example 8; parameters: DA clearance in striatum and nucleus accumbens of urethane-anesthetized SD rats; from tissue; host or cells: striatum / nucleus accumbens of living anesthetized SD rats; species or system SD rats
Procedure: DA clearance in striatum and nucleus accumbens of urethane-anesthetized SD rats was monitored by in vivo electrochemistry using high-speed chrono-amperometry [see 36]. After obtaining reproducible signals for locally applied DA, vehicle or drug was applied slowly over 10-30 sec, then 30-60 sec later the next application of DA was made, with subsequent DA applications at 5-minute intervals for 25-30 min. The DA kinetic data from each animal was analyzed using FAST software (Quanteon). […] These effects were no longer seen 3-5 minutes after lobinaline ejection. They are consistent with simple competitive inhibition of the DAT by lobinaline. […] However, the lobinaline N-oxides produce different effects. Representative data from lobinaline N-oxide, at the same concentration used for lobinaline (1 mM in 250 nl medium) are shown in FIG. 6. […] This is entirely consistent with effects on synaptosomal [3H]DA uptake in vitro above, and probably represents competitive inhibition. However, after exposure to the N-oxide there is a significant and prolonged (c20 min) increase in the first order rate of decay of the DA peak. […] This increase in rate constant induced by the N-oxide varied from 20× to 2× at increasing depths in the DV gradient.
The uptake rate of locally applied DA (˜100 nl; 200 μM) was measured before and 1 minute after local application of lobinaline (˜250 nl; 1 mM), 403 (˜300 nl; 250 μM) or 419 (˜300 nl; 250 μM) (FIGS. 7, 8, and 9).

Structure (SMILES): CN1CCCC2C(c3ccccc3)C(C3=NCCCC3)C(c3ccccc3)CC21 (stereo not drawn) [lobinaline]
- K octanol/water (Ko/w) [1]: 4.8
- aqueous solubility (aqueous solubility): very low aqueous solubility
- Ki (nicAChRs [2]): 16 µM
- character of [3H]epibatidine displacement (nicAChRs [2]): monophasically displaced
- Ki (alpha4/beta2 nicAChR): 1.1 µM
- Ki (alpha7-nicAChR): 15 µM
- mode of action at nicAChRs (nicAChR): weak partial agonist
- fractional [3H]DA release induced by 10 uM nicotine after test substance (nicAChRs [3]): completely prevented
- food or water intake [4]: no reduction in food or water intake
- overt toxicity [4]: neither compound produced overt toxicity
- inhibition of alcohol consumption ([4]; males and females): ~40%
- IC50 (DAT [5]): 0.359 µM
- extent of displacement of [3H]GBR 12935 (DAT [6]): completely displaced
- Ki (DAT [6]; read-out: Ki, displacement of [3H]GBR 12935): 2.54 µM
- effect on DA clearance rate (DAT [7]; 1-minute post-application): significantly decreased
- effect on DA peak (DAT [7]; local application 1 mM, 250 nl): non-significantly decreased
- time after ejection at which effects are no longer seen / DA clearance returns to normal (DAT [7]; local ejection in striatum): 3 to 5 min
- reduction in DA clearance (DAT [7]; striatum, 1 minute after local application (lobinaline ~250 nl 1 mM; 403, 419 ~300 nl 250 μM), FIGS. 7-9): 50%
